Reference: ChEMBL document CHEMBL1201862, “PubChem BioAssay data set” (2004)
Values joined by “and” are separate entries in the source; they are usually repeats but may differ in a detail not shown here. Equal entries are not always repeated.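 Exposure lasted 48 hours, with cells grown in 96-well plates and compounds tested at five concentrations. Abbreviation: GI50, concentration required for 50% inhibition of growth.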 Active and inactive are the calls of the source. Rule as the data show it: active = GI50 up to about 1.1 µM and inactive = higher.

Legend:
Assay in all cases: DTP human tumour cell line panel, 48 h
[1] = tested on: 786-0
[2] = tested on: A549
[3] = tested on: ACHN
[4] = tested on: CAKI-1
[5] = tested on: COLO 205
[6] = tested on: DU-145
[7] = tested on: HOP-62
[8] = tested on: Hs-578T
[9] = tested on: K562
[10] = tested on: M14
[11] = tested on: MCF7
[12] = tested on: MDA-MB-435
[13] = tested on: Malme-3M
[14] = tested on: NCI-H226
[15] = tested on: NCI-H522
[16] = tested on: OVCAR-3
[17] = tested on: OVCAR-4
[18] = tested on: OVCAR-8
[19] = tested on: RPMI-8226
[20] = tested on: RXF 393
[21] = tested on: SF-295
[22] = tested on: SF-539
[23] = tested on: SK-MEL-5
[24] = tested on: SNB-19
[25] = tested on: SR
[26] = tested on: TK-10
[27] = tested on: U-251
[28] = tested on: UACC-257
[29] = tested on: CCRF-CEM
[30] = tested on: HCC 2998
[31] = tested on: HCT-116
[32] = tested on: HCT-15
[33] = tested on: HL-60
[34] = tested on: HOP-92
[35] = tested on: KM12
[36] = tested on: LOX IMVI
[37] = tested on: MDA-MB-231
[38] = tested on: MDA-N
[39] = tested on: MOLT-4
[40] = tested on: NCI-H23
[41] = tested on: NCI-H460
[42] = tested on: NCI/ADR-RES
[43] = tested on: OVCAR-5
[44] = tested on: PC-3
[45] = tested on: SF-268
[46] = tested on: SK-MEL-28
[47] = tested on: SK-MEL-2
[48] = tested on: SK-OV-3
[49] = tested on: SN12C
[50] = tested on: SNB-75
[51] = tested on: SW-620
[52] = tested on: T47D
[53] = tested on: UACC-62
[54] = tested on: UO-31

O=[N+]([O-])c1ccc(OC2CC3C4C=CC3C2C4)c([N+](=O)[O-])c1 (configuration not stated)
GI50 [1]: 24.6 µM (inactive) and > 31.6 µM (inactive) | GI50 [2]: 31 µM (inactive) and 33.3 µM (inactive) | GI50 [3]: 37.4 µM (inactive) and > 31.6 µM (inactive) | GI50 [4]: 29.2 µM (inactive) and > 31.6 µM (inactive) | GI50 [5]: 54 µM (inactive) and > 31.6 µM (inactive) | GI50 [6]: 45.8 µM (inactive) and > 31.6 µM (inactive) | GI50 [7]: 45 µM (inactive) and > 31.6 µM (inactive) | GI50 [8]: 33.7 µM (inactive) and > 31.6 µM (inactive) | GI50 [9]: 30.8 µM (inactive) and > 31.6 µM (inactive) | GI50 [10]: 21.6 µM (inactive) and > 31.6 µM (inactive) | GI50 [11]: > 100 µM (inactive) and 61.4 µM (inactive) | GI50 [12]: > 31.6 µM (inactive) and 24.3 µM (inactive) | GI50 [13]: 31.4 µM (inactive) and 34.8 µM (inactive) | GI50 [14]: > 31.6 µM (inactive) and 42 µM (inactive) | GI50 [15]: 43.6 µM (inactive) and > 31.6 µM (inactive) | GI50 [16]: 43.5 µM (inactive) and 29.4 µM (inactive) | GI50 [17]: 22.8 µM (inactive) and > 31.6 µM (inactive) | GI50 [18]: 39.2 µM (inactive) and > 31.6 µM (inactive) | GI50 [19]: 0.0465 µM (active) | GI50 [20]: 42.6 µM (inactive) and > 31.6 µM (inactive) | GI50 [21]: 16.5 µM (inactive) and > 31.6 µM (inactive) | GI50 [22]: > 31.6 µM (inactive) and 26.3 µM (inactive) | GI50 [23]: 39.8 µM (inactive) and 21 µM (inactive) | GI50 [24]: 32.3 µM (inactive) and > 31.6 µM (inactive) | GI50 [25]: > 10 µM (inactive) | GI50 [26]: > 31.6 µM (inactive) and 33.7 µM (inactive) | GI50 [27]: 37.6 µM (inactive) and > 31.6 µM (inactive) | GI50 [28]: 20.9 µM (inactive) and > 31.6 µM (inactive)

CC(C)CCNC(=O)c1ccc(CNC(=O)/C=C/c2ccc(-c3ccccc3[N+](=O)[O-])o2)cc1
GI50 [1]: 28.6 µM (inactive) | GI50 [2]: 68.2 µM (inactive) | GI50 [3]: 53.2 µM (inactive) | GI50 [4]: 46.3 µM (inactive) | GI50 [29]: 12.2 µM (inactive) | GI50 [5]: > 100 µM (inactive) | GI50 [6]: 64.9 µM (inactive) | GI50 [30]: > 100 µM (inactive) | GI50 [31]: 34.2 µM (inactive) | GI50 [32]: > 100 µM | GI50 [33]: 11.6 µM (inactive) | GI50 [7]: 24.3 µM (inactive) | GI50 [34]: > 10 µM (inactive) | GI50 [9]: 82.6 µM (inactive) | GI50 [35]: 32.5 µM (inactive) | GI50 [36]: > 100 µM (inactive) | GI50 [10]: > 100 µM (inactive) | GI50 [11]: 68.5 µM (inactive) | GI50 [37]: > 100 µM (inactive) | GI50 [12]: 34.9 µM (inactive) | GI50 [38]: 89.5 µM (inactive) | GI50 [39]: > 100 µM (inactive) | GI50 [14]: 21.9 µM (inactive) | GI50 [40]: 82.8 µM (inactive) | GI50 [41]: > 100 µM (inactive) | GI50 [42]: 28.2 µM (inactive) | GI50 [16]: 94.8 µM (inactive) | GI50 [17]: 14.4 µM (inactive) | GI50 [43]: 81.8 µM (inactive) | GI50 [18]: 26.6 µM (inactive) | GI50 [44]: > 100 µM (inactive) | GI50 [19]: 96.8 µM (inactive) | GI50 [20]: > 100 µM (inactive) | GI50 [45]: 18.6 µM (inactive) | GI50 [21]: 42.7 µM (inactive) | GI50 [46]: 16.6 µM (inactive) | GI50 [47]: 95.7 µM (inactive) | GI50 [23]: 18.1 µM (inactive) | GI50 [48]: > 100 µM (inactive) | GI50 [49]: > 100 µM (inactive) | GI50 [24]: 22.7 µM (inactive) | GI50 [50]: 25 µM (inactive) | GI50 [25]: 91.8 µM (inactive) | GI50 [51]: 41.5 µM (inactive) | GI50 [52]: 12.2 µM (inactive) | GI50 [27]: 56.8 µM (inactive) | GI50 [28]: 47 µM (inactive) | GI50 [53]: 16 µM (inactive) | GI50 [54]: 76.7 µM (inactive)
